Laboratory results published in article PMC11311031, “Novel Thienopyrimidine-Hydrazinyl Compounds Induce DRP1-Mediated Non-Apoptotic Cell Death in Triple-Negative Breast Cancer Cells” (Cancers, 2024).
Entries after “also recorded” stand apart in the source; their conditions may differ. Each block holds one compound with its values, some of them ahead of it.

Columns and labels:
Type in all cases: cell-based
[1] = system: mitochondrial membrane potential in BT-20 cells; assay: Mitochondrial membrane potential (TMRE dye); settings: 200 μM, 4 h, p < 0.0001
Method: The mitochondrial membrane potential (MMP) was determined using fluorescence microscopy by staining cellular mitochondria with tetramethylrhodamine ethyl ester (TMRE) dye (Invitrogen, Waltham, MA, USA). […] As a positive control, cells were incubated with carbonyl cyanide 3-chlorophenylhydrazone (CCCP) (TargetMol, Boston, MA, USA), a compound that uncouples mitochondrial oxidative phosphorylation, at a concentration of 200 μM, for 4 h. After incubation with the test compounds, the media was carefully removed from each well and incubated for 20 min with 0.4 µM of TMRE in PBS. Finally, the dye was carefully removed and replaced with fresh PBS. The cells were then imaged to detect MMP using a Cytation 7 Cell Imaging Multi-Mode Reader.

[2] = system: BT-20 cells; assay: MTT cell cytotoxicity assay; settings: Homo sapiens, 72 h incubation, read-out: IC50 ± SD, BT-20, MTT Assay
Method: (§1) The cytotoxic efficacy of thienopyrimidine derivatives was determined as previously described, using 3 different assays: (1) (3-(4,5-dimethylthiazol-2-yl)-2,5-diphenyltetrazolium bromide) (MTT) (Avantor, Radnor, PA, USA), (2) CellTiter-Blue (CTB) (Promega, Madison, WI, USA), and (3) sulforhodamine B (SRB) (TargetMol, Boston, MA, USA) assay. For these assays, cells were harvested using 0.05% trypsin-ethylenediamine-tetraacetic acid (EDTA) (Corning, Corning, NY, USA), seeded at a density of 3000–5000 cells/well in a 96-well plate, and incubated at 37 °C overnight. The next day, the cells were incubated with different concentrations of the test compounds (0.1, 0.3, 1, 3, 10, 30, or 100 μM) and incubated for 72 h. […] In contrast, vehicle control (cells incubated in drug-free medium) contained less than 0.1% of DMSO.
For the MTT assay, 4 mg/mL MTT was added to the cells and incubated for 3 h to allow for the conversion of MTT (yellow) to formazan crystals (dark blue). Following incubation, the media was aspirated and DMSO was added to solubilize the formazan crystals. The Cytation 7 Cell Imaging Multi-Mode Reader (Agilent Technologies, Winooski, VT, USA) was used to measure the absorbance at 570 nm.

[3] = system: BT-20 cells; assay: CellTiter-Blue (CTB) assay; settings: Homo sapiens, 72 h incubation, read-out: IC50 ± SD, BT-20, CTB Assay
Method: as §1
For the CTB assay, the CTB reagent was added to cells and incubated for 3 h to allow the reduction of resazurin (emits a blue color and low fluorescence) by metabolically active cells to resorufin (emits a pink color and high fluorescence). Finally, the plates were shaken for 10 s in a plate shaker, and fluorescence was measured at 560/590 nm.

[4] = system: BT-20 cells; assay: Sulforhodamine B (SRB) assay; settings: Homo sapiens, 72 h incubation, read-out: IC50 ± SD, BT-20, SRB Assay
Method: as §1
For the SRB assay, the cells were fixed with 50% (w/v) tri-chloroacetic acid (TCA) (Avantor, Radnor, PA, USA) and incubated at 4 °C for 1 h. The cells were washed 4 times with deionized, distilled water, and air-dried at room temperature. The next day, the cells were stained with 0.04% (w/v) SRB solution for 1 h at room temperature and washed 4 times with 1% (v/v) acetic acid (Avantor, Radnor, PA, USA). After airdrying the plates overnight, 10 mM Tris base solution (pH 10.5) was added to each well and pipetted thoroughly to dissolve the dye, and absorbance was read at 510 nm.

[5] = system: BT-20 cells; assay: Nuclear staining with Hoechst 33342; settings: 1 μM, 24 h
Method: Briefly, 100,000 cells/well of BT-20 cells were plated in a 6-well plate containing clear sterile coverslips. […] Next, the cells were stained with 0.5% v/v of the Hoechst 33342 dye for 15 min. 4% paraformaldehyde at a concentration of 4%, was used to fix cells at room temperature for another 15 min. After 1 wash with PBS, the cells were mounted on a clear slide, using Fluoromount-G (SouthernBiotech, Birmingham, AL, USA). The slides were visualized to detect nuclear fragmentation using the Cytation 7 Cell Imaging Multi-Mode Reader (Agilent Technologies, Winooski, VT, USA), which provided data related to nuclear fragmentation.

[6] = system: caspases (-3, -7, -8, -9), BAX, BAK, BCL-2, PARP in BT-20 cells; assay: Western blot of apoptotic and anti-apoptotic proteins; settings: 1 μM
Method: Subsequently, the cells were washed with ice-cold PBS. The subcellular fraction was obtained by scraping the cells using a cell scrapper in ice-cold cytosolic lysis buffer. Next, the lysates were left on ice for 15 min. Nonyl phenoxypolyethoxylethanol (NP-40) (10% v/v) was introduced in the lysates and subjected to 2–3 min incubation. The lysates were then centrifuged for 10 min at 4 °C and 14,000 rpm. The resultant protein concentration in the lysates was determined using bicinchoninic acid (BCA) assay. Thirty micrograms of the proteins were loaded and separated on a 10% acrylamide SDS-PAGE gel, transferred to a PVDF membrane, and incubated overnight at 4 °C, with primary antibodies against cleaved caspase-3, caspase-3, cleaved caspase-7, caspase-7, cleaved caspase-9, caspase-9, cleaved caspase-8, caspase-8, BAX, BAK, BCL-2, cleaved PARP, PARP, p-DRP1, DRP1, p-MFF, MFF, FIS1, MFN1, MFN2, OPA1, and β-actin. […] ImageJ software (National Institutes of Health, Bethesda, MD, USA) was used to quantify the protein. Cellular proteins were quantified as a ratio to β-actin and were normalized to the vehicle control. The densitometry readings/intensity ratio of each band, andthe original whole western blot (uncropped blots) showing all the bands with the molecular weight markers, is shown in the Supplemental Materials.

[7] = system: caspase 3/7 activity in BT-20 cells; assay: Caspase-Glo 3/7 activity assay
Method: Caspase-Glo® 3/7 Assay (Promega, Madison, WI, USA) was used to study the caspase 3/7 activity in BT-20 cells incubated with lead compounds. Briefly, 3000 BT-20 TNBC cells/well were plated in an opaque 96-well plate. […] Next, a mixture of Caspase-Glo® 3/7 buffer and lyophilized Caspase-Glo® 3/7 substrate was equilibrated to room temperature. The plates were removed from the incubator and allowed to adjust to room temperature for 30 min. Next, 100 μL of the Caspase-Glo® 3/7 reagent was added to each well, and the samples were placed in a shaker for 30 s. After 3 h of incubation at room temperature, luminescence, which indicates cleavage of […] caspases (caspase-3 and -7), was measured using a microplate reader (Agilent Technologies, Winooski, VT, USA).

[8] = system: cytochrome c in BT-20 cells; assay: Immunofluorescence of cytochrome c; settings: 1 μM, p < 0.0001
Method: Immunofluorescence assays were conducted as previously described. In total, 100,000 BT-20 cells per well were plated on coverslips in a 6-well plate. […] After the incubation period, the media was carefully removed, and the cells were fixed using 1 mL of 4% paraformaldehyde for 15 min at room temperature. The cells were rinsed three times with PBS for 5 min. Five hundred microliters of 0.2% Trition-X100 was added to each well for 10 min to permeabilize the cells. The cells were washed three times with PBS for 5 min each. The cells were then blocked with 3% bovine serum albumin (BSA) in PBS, containing 0.1% Tween, for 2 h at room temperature before incubation with either cytochrome c (1:250), DRP1 (1:50), or phosphorylated-DRP1(1:450) monoclonal antibodies (Cell Signaling Technology, Danvers, MA, USA) overnight at 4 °C. The cells were incubated with either anti-mouse Alexa Fluor™ 594 (Invitrogen, Waltham, MA, USA) or anti-rabbit Alexa Fluor™ 488 at room temperature for 1 h. Nuclei were finally stained with Hoechst 33342 (ImmunoChemistry Technologies, Davis, CA, USA) for 10 min. Images were captured using a Cytation 7 Cell Imaging Multi-Mode Reader.

[9] = system: ROS in BT-20 cells; assay: Intracellular ROS (H2DCFDA dye); settings: 2 μM, 2 h, p < 0.0001
From the text: It has been reported that ROS can cause the death of cancer cells by inducing apoptosis. Indeed, high levels of ROS activate the p53 enzyme system, which promotes late-stage apoptosis by upregulating the levels of pro-apoptotic proteins such as BAK and BAX and downregulating the levels of anti-apoptotic proteins such as BCL-2, BCL-xL, and MCL-1 [120]. In addition, ROS induce permeabilization of the outer mitochondrial membrane by opening the mitochondrial permeability transition pore (mPTP). This alters the electrochemical proton gradient across the mitochondria, causing the release of pro-apoptotic molecules into the cytoplasm, which are involved in apoptotic cell death. […] Cellular esterases hydrolyze the acetyl groups after the dye is taken up by cells, resulting in the formation of H2DCF [124]. Subsequently, intracellular ROS oxidize H2DCF to produce 2′,7′-dichlorofluorescein, which emits green fluorescence (excitation and emission wavelengths of 485 nm and 522 nm, respectively).

[10] = system: mouse embryonic fibroblast (MEF) cells; assay: β-Galactosidase staining (senescence), positive control; settings: 250 nM, 24 h
Method: BT-20 cells were plated at 4000/well into a 96-well plate and incubated overnight. […] Four thousand cells/well of senescent MEFs were also seeded. The plate was incubated for 24 h. Once 80–100% confluency was obtained, mouse embryonic fibroblast (MEF) cells were incubated with 250 nM of doxorubicin for 24 h to induce senescence (positive control), followed by a change in media. The cells were incubated for another week and the media was changed every 3–4 days.
The next day, the cells were washed with PBS and fixed with 3% formaldehyde for 5 min. The cells were washed with PBS twice, followed by an addition of β-galactosidase (Research Products International, Racine, WI, USA) stain. The cells were placed in a 37 °C incubator with no CO2 overnight and imaged to detect β-galactosidase staining the next day using the Color Brightfield channel on the Cytation 7 Imaging Multi-Mode Reader.

Compound: N#CC(C#N)=NNc1cccc(Cl)c1 [CCCP, carbonyl cyanide 3-chlorophenylhydrazone]
TMRE fluorescence compared to vehicle control (positive control) [1]: significantly lower

IC50 [3]: 70 ± 30 nM
IC50 [4]: 50 nM
Compound: CC(=O)O[C@H]1C(=O)[C@@]2(C)[C@H]([C@H](OC(=O)c3ccccc3)[C@]3(O)C[C@H](OC(=O)[C@H](O)[C@@H](NC(=O)c4ccccc4)c4ccccc4)C(C)=C1C3(C)C)[C@]1(OC(C)=O)CO[C@@H]1C[C@@H]2O [PTX, Paclitaxel]
IC50 [2]: 50 nM
level of nuclear fragmentation (positive control) [5]: significantly increased
Bcl-2 levels compared to vehicle control [6]: significant decrease
levels of cleaved caspase-3, -7, -8, -9 and total caspase-8 compared to vehicle control [6]: significantly upregulated
level of bioluminescence (activation of caspase-3 and caspase-7) ([7]; 0.1 μM): significantly increased
caspase-3 and 7 activity (Caspase-Glo 3/7) ([7]; 1 µM, n = 2): induced; also recorded: increased
cytochrome c release compared to vehicle control [8]: significantly enhanced
ROS levels compared to vehicle control [9]: significantly elevated

Compound: COc1cccc2c1C(=O)c1c(O)c3c(c(O)c1C2=O)C[C@@](O)(C(=O)CO)C[C@@H]3O[C@H]1C[C@H](N)[C@H](O)[C@H](C)O1 [doxorubicin]
SA-β-gal staining of MEF cells (positive control) [10]: stained blue
